Results reported in the supplement of paper PMC10307832.

Compound: Cc1ccc(NC(=O)c2ccc(CN3CCN(C)CC3)cc2)cc1Nc1nc(-c2cccnc2)cs1 [Masitinib] + N=C(N)NC(=N)NCCc1ccccc1 [Phenformin] (partner 250 µM)
Assay: relative viability (nuclei count vs DMSO), 5 days (fraction); higher = more cells survive
Settings: first compound 0.01 µM
Procedure, shortened: (§1)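 After 5 days of treatment, lung cancer cells in 1536-well plates were fixed and stained in a single step (final 0.05% Triton X-100, 1% formaldehyde, 1 ug/ml Hoechst) and their nuclei counted on 4× images. Treatment had been applied by pin tool the day after seeding as one drug alone or as a fixed anchor-drug dose with five library-drug doses (not always all listed) in √10 steps. Relative viability is the nuclei count of treated wells divided by that of vehicle wells, and values are medians of duplicate plates.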

Cell Line | relative viability
HCC-78 | 0.724
NCI-H441 | 0.654
NCI-H2023 | 0.409
NCI-H460 | 0.482
NCI-H727 | 0.641
NCI-H520 | 0.633
NCI-H2405 | 0.379
SW 1573 | 0.351
NCI-H1395 | 0.42
201T | 0.362
NCI-H1975 | 0.405
HCC-827 | 0.395
NCI-H2347 | 0.391
NCI-H1355 | 0.462
NCI-H650 | 0.508
CAL-12T | 0.525
EPLC-272H | 0.317
NCI-H23 | 0.846
NCI-H1437 | 0.249
NCI-H322M | 0.789
NCI-H1792 | 0.216
NCI-H2085 | 0.631

Same assay, conditions: first compound 0.03162 µM

Cell Line | relative viability
HCC-78 | 0.638
NCI-H441 | 1.05
LCLC-97TM1 | 0.458
NCI-H2023 | 0.371
A-427 | 0.292
NCI-H460 | 0.586
NCI-H727 | 0.636
NCI-H1755 | 0.51
NCI-H520 | 0.648
NCI-H2405 | 0.366
SW 1573 | 0.344
NCI-H1395 | 0.442
201T | 0.409
NCI-H1975 | 0.402
HCC-827 | 0.433
NCI-H2347 | 0.402
NCI-H1355 | 0.384
NCI-H650 | 0.428
CAL-12T | 0.637
NCI-H1666 | 0.527
EPLC-272H | 0.212
NCI-H23 | 0.734
NCI-H1915 | 0.367
NCI-H1437 | 0.297
NCI-H322M | 0.799
NCI-H1792 | 0.258
NCI-H2085 | 0.717

Same assay, conditions: first compound 0.1 µM

Cell Line | relative viability
HCC-78 | 0.752
NCI-H441 | 0.837
LCLC-97TM1 | 0.407
NCI-H2023 | 0.397
NCI-H460 | 0.508
NCI-H727 | 0.5
NCI-H1755 | 0.545
NCI-H520 | 0.664
NCI-H2405 | 0.399
SW 1573 | 0.341
NCI-H1395 | 0.473
201T | 0.373
NCI-H1975 | 0.422
HCC-827 | 0.382
NCI-H2347 | 0.333
NCI-H1355 | 0.478
NCI-H650 | 0.514
CAL-12T | 0.594
NCI-H1666 | 0.637
EPLC-272H | 0.285
NCI-H23 | 0.881
NCI-H1437 | 0.25
NCI-H322M | 0.741
NCI-H1792 | 0.233
NCI-H2085 | 0.771

Same assay, conditions: first compound 0.3162 µM

Cell Line | relative viability
HCC-78 | 0.663
NCI-H441 | 0.94
LCLC-97TM1 | 0.492
NCI-H2023 | 0.429
A-427 | 0.309
NCI-H460 | 0.457
NCI-H727 | 0.616
NCI-H1755 | 0.597
NCI-H520 | 0.584
NCI-H2405 | 0.459
SW 1573 | 0.354
NCI-H1395 | 0.47
201T | 0.471
HCC-827 | 0.411
NCI-H2347 | 0.374
NCI-H1355 | 0.379
NCI-H650 | 0.303
CAL-12T | 0.553
NCI-H1666 | 0.487
EPLC-272H | 0.305
NCI-H23 | 0.781
NCI-H1915 | 0.401
NCI-H1437 | 0.294
NCI-H322M | 0.75
NCI-H1792 | 0.363
NCI-H2085 | 0.778

Same assay, conditions: first compound 1 µM

Cell Line | relative viability
HCC-78 | 0.718
NCI-H441 | 0.843
LCLC-97TM1 | 0.446
NCI-H2023 | 0.317
A-427 | 0.235
NCI-H460 | 0.503
NCI-H727 | 0.44
NCI-H1755 | 0.581
NCI-H520 | 0.457
NCI-H2405 | 0.247
SW 1573 | 0.383
NCI-H1395 | 0.424
201T | 0.44
NCI-H1975 | 0.408
HCC-827 | 0.318
NCI-H2347 | 0.327
NCI-H1355 | 0.406
NCI-H650 | 0.425
CAL-12T | 0.509
NCI-H1666 | 0.56
EPLC-272H | 0.257
NCI-H23 | 0.748
NCI-H1915 | 0.349
NCI-H1437 | 0.329
NCI-H322M | 0.715
NCI-H1792 | 0.191
NCI-H2085 | 0.657

Compound: CC1=CC(=CC=C1)NC2=NC(=CS2)C3=CC=NC=C3 + COc1cccc2cc(-c3nc([C@H]4CC[C@H](C(=O)O)CC4)n4ncnc(N)c34)[nH]c12 [OSI-027] (partner 0.5 µM)
Assay: as above
Settings: first compound 0.08 µM
Procedure, shortened: as §1

Cell Line | relative viability
NCI-H441 | 0.492
LCLC-97TM1 | 0.413
NCI-H2023 | 0.337
A-427 | 0.378
NCI-H460 | 0.623
NCI-H1755 | 0.485
NCI-H520 | 0.259
NCI-H2405 | 0.564
SW 1573 | 0.569
NCI-H1395 | 0.555
201T | 0.501
NCI-H1975 | 0.699
HCC-827 | 0.702
NCI-H2347 | 0.362
NCI-H1355 | 0.262
NCI-H650 | 0.509
CAL-12T | 0.45
NCI-H1666 | 0.582
EPLC-272H | 0.243
NCI-H23 | 0.48
NCI-H1915 | 0.598
NCI-H1437 | 1.04
NCI-H322M | 0.418
NCI-H1792 | 0.541
NCI-H2085 | 0.7

Same assay, conditions: first compound 0.253 µM

Cell Line | relative viability
HCC-78 | 0.371
NCI-H441 | 0.499
LCLC-97TM1 | 0.43
NCI-H2023 | 0.269
A-427 | 0.522
NCI-H460 | 0.522
NCI-H727 | 0.412
NCI-H1755 | 0.7
NCI-H520 | 0.252
NCI-H2405 | 0.636
SW 1573 | 0.593
NCI-H1395 | 0.567
201T | 0.438
NCI-H1975 | 0.653
HCC-827 | 0.755
NCI-H2347 | 0.328
NCI-H1355 | 0.323
NCI-H650 | 0.511
CAL-12T | 0.546
NCI-H1666 | 0.598
EPLC-272H | 0.274
NCI-H23 | 0.485
NCI-H1915 | 0.61
NCI-H1437 | 1.02
NCI-H322M | 0.508
NCI-H2085 | 0.614

Same assay, conditions: first compound 0.8 µM

Cell Line | relative viability
HCC-78 | 0.392
NCI-H441 | 0.605
LCLC-97TM1 | 0.546
NCI-H2023 | 0.376
A-427 | 0.523
NCI-H460 | 0.628
NCI-H727 | 0.597
NCI-H1755 | 0.58
NCI-H520 | 0.302
NCI-H2405 | 0.531
SW 1573 | 0.723
NCI-H1395 | 0.663
201T | 0.522
NCI-H1975 | 0.628
HCC-827 | 0.693
NCI-H1355 | 0.291
NCI-H650 | 0.544
CAL-12T | 0.542
NCI-H1666 | 0.676
EPLC-272H | 0.258
NCI-H23 | 0.654
NCI-H1915 | 0.602
NCI-H1437 | 1.08
NCI-H322M | 0.574
NCI-H1792 | 0.613
NCI-H2085 | 0.598

Same assay, conditions: first compound 2.53 µM

Cell Line | relative viability
HCC-78 | 0.308
NCI-H441 | 0.61
LCLC-97TM1 | 0.513
NCI-H2023 | 0.228
A-427 | 0.397
NCI-H460 | 0.486
NCI-H727 | 0.618
NCI-H1755 | 0.653
NCI-H520 | 0.193
NCI-H2405 | 0.702
SW 1573 | 0.561
NCI-H1395 | 0.505
201T | 0.494
NCI-H1975 | 0.483
HCC-827 | 0.809
NCI-H2347 | 0.419
NCI-H1355 | 0.343
NCI-H650 | 0.475
CAL-12T | 0.469
NCI-H1666 | 0.501
EPLC-272H | 0.27
NCI-H23 | 0.526
NCI-H1915 | 0.575
NCI-H1437 | 1.04
NCI-H322M | 0.519
NCI-H1792 | 0.443
NCI-H2085 | 0.613

Same assay, conditions: first compound 8 µM

Cell Line | relative viability
HCC-78 | 0.435
NCI-H441 | 0.672
LCLC-97TM1 | 0.692
NCI-H2023 | 0.207
A-427 | 0.48
NCI-H460 | 0.341
NCI-H727 | 0.568
NCI-H1755 | 0.588
NCI-H520 | 0.251
NCI-H2405 | 0.671
SW 1573 | 0.536
NCI-H1395 | 0.638
201T | 0.536
NCI-H1975 | 0.267
HCC-827 | 0.732
NCI-H2347 | 0.411
NCI-H1355 | 0.383
NCI-H650 | 0.578
CAL-12T | 0.528
NCI-H1666 | 0.507
EPLC-272H | 0.281
NCI-H23 | 0.555
NCI-H1915 | 0.587
NCI-H1437 | 0.714
NCI-H322M | 0.565
NCI-H1792 | 0.401
NCI-H2085 | 0.522

Compound: CC1=CC(=CC=C1)NC2=NC(=CS2)C3=CC=NC=C3 + CC(=O)c1c(C)c2cnc(Nc3ccc(N4CCNCC4)cn3)nc2n(C2CCCC2)c1=O [Palbociclib] (partner 0.5 µM)
Assay: as above
Settings: first compound 0.08 µM
Procedure, shortened: as §1

Cell Line | relative viability
HCC-78 | 0.367
